Our source for the MIC, IC50 and Selectivity index values is ChEMBL document CHEMBL1144609, “N-Hydroxythiosemicarbazones: synthesis and in vitro antitubercular activity” (Bioorg Med Chem Lett, 2007).

Experiment [1] concerns Mycobacterium tuberculosis. Put plainly: Antimycobacterial activity against Mycobacterium tuberculosis H37Rv by agar dilution method. The class given is functional.
For the next experiment, the system named is Vero. Put plainly: Cytotoxicity against Vero cells after 72 hrs by MTT assay. It is filed as cell-based. Conditions: Chlorocebus sabaeus. (In general: Tetrazolium dyes change colour on reduction, which living cells bring about.)
Experiment [2] can be described thus: Selectivity index, ratio of IC50 for Vero cells to MIC for Mycobacterium tuberculosis H37Rv. The class given is functional.

Structures are written as SMILES. Values after ≈ are worked out from the molar mass of the structure shown.

One may read the MIC as the lowest concentration that inhibits growth of the organism. A low value points to greater potency. For the molecule `CN(C)c1ccc(/C=N/NC(=S)NO)cc1`, the MIC in experiment [1] came to 52.5 µM (≈ 12.5 µg/mL). `COc1ccc(/C=N/NC(=S)NO)cc1` displayed an MIC in experiment [1] of 14.9 µM (≈ 3.37 µg/mL).

In experiment [1], `Cc1ccc(/C=N/NC(=S)NO)cc1` yielded an MIC of 13 µM (≈ 2.71 µg/mL). In the case of `ONC(=S)N/N=C/c1ccc(Cl)cc1`, the MIC in experiment [1] was found to be 13 µM (≈ 2.99 µg/mL). In experiment [1], `ONC(=S)N/N=C/c1ccccc1O` gave an MIC of 29.6 µM (≈ 6.25 µg/mL). As usually defined, the IC50 is the concentration at which inhibition is half-maximal. Read a low IC50 as higher potency. In turn, `O=[N+]([O-])c1ccc(/C=N/NC(=S)NO)cc1` came in with an IC50 in the experiment on Vero greater than 260 µM. It took 6.49 µM (≈ 1.56 µg/mL) to inhibit growth in experiment [1] (MIC). With `C/C(=N\NC(=S)NO)c1ccccc1`, in experiment [1], inhibition of growth (MIC) required 14.9 µM (≈ 3.13 µg/mL). As to `C/C(=N\NC(=S)NO)c1ccc(C)cc1`, the concentration for half-maximal inhibition (IC50) with Vero is greater than 280 µM. In experiment [1], this molecule registered an MIC of 6.98 µM (≈ 1.56 µg/mL). The matching figures for `C/C(=N\NC(=S)NO)c1ccc(Cl)cc1`: greater than 256 µM and 3.2 µM (≈ 0.78 µg/mL). The matching figures for `C/C(=N\NC(=S)NO)c1ccc([N+](=O)[O-])cc1`: greater than 246 µM and 0.78 µM (≈ 0.198 µg/mL).

As for `ONC(=S)N/N=C(\c1ccccc1)c1ccc(Br)cc1`, the Selectivity index in experiment [2] is listed as greater than 625. The molecule also registered an IC50 with Vero greater than 178 µM. Moreover, it took 0.28 µM (≈ 0.0981 µg/mL) to inhibit growth in experiment [1] (MIC). `O=C1Nc2ccc(F)cc2/C1=N/NC(=S)NO` had an MIC in experiment [1] of 24.6 µM (≈ 6.25 µg/mL).

`COc1cc(/C=N/NC(=S)NO)ccc1O` yielded an MIC in experiment [1] of 27.2 µM (≈ 6.57 µg/mL). Consider `ONC(=S)N/N=C/c1ccccc1`, for which the MIC in experiment [1] stood at 64 µM (≈ 12.5 µg/mL).

In experiment [1], `ONC(=S)N/N=C/c1ccc(O)cc1` had an MIC of 29.6 µM (≈ 6.25 µg/mL). In the experiment with Vero, `O=[N+]([O-])c1ccccc1/C=N/NC(=S)NO` gave an IC50 greater than 260 µM. The lowest concentration to inhibit growth in experiment [1] (MIC) was 6.49 µM (≈ 1.56 µg/mL). In the case of `C/C(=N\NC(=S)NO)c1ccccc1O`, the MIC in experiment [1] was found to be 13.9 µM (≈ 3.13 µg/mL). In turn, `O=C1Nc2ccccc2/C1=N/NC(=S)NO` showed an MIC in experiment [1] of 64 µM (≈ 15.1 µg/mL). In the experiment on Vero, `CC[C@@H](CO)NCCN[C@@H](CC)CO` [ETHAMBUTOL] displayed an IC50 greater than 306 µM. Besides, the MIC in experiment [1] is 15.3 µM (≈ 3.13 µg/mL).

In the experiment on Vero, `NNC(=O)c1ccncc1` [ISONIAZID] returned an IC50 greater than 456 µM. In experiment [1], this molecule had an MIC of 0.72 µM (≈ 0.0987 µg/mL).

`CO[C@H]1/C=C/O[C@@]2(C)Oc3c(C)c(O)c4c(O)c(c(/C=N/N5CCN(C)CC5)c(O)c4c3C2=O)NC(=O)/C(C)=C\C=C\[C@H](C)[C@H](O)[C@@H](C)[C@@H](O)[C@@H](C)[C@H](OC(C)=O)[C@@H]1C` [RIFAMPIN] had an IC50 in the experiment with Vero greater than 75.9 µM. Further, in experiment [1], the MIC was determined as 0.24 µM (≈ 0.198 µg/mL).
